How the values were obtained:
[1] = test system: Hepatitis C virus; experiment: Selectivity ratio of EC50 for HCV genotype 1b harboring NS5B polymerase M423T mutant to EC50 for HCV genotype 1b harboring wild type NS5B polymerase; assay type: functional, Hepacivirus hominis
[2] = test system: Hepatitis C virus; experiment: Antiviral activity against HCV genotype 1b harboring NS5B polymerase M423T mutant infected in human HuH7-Lunet cells by luciferase reporter gene assay; assay type: functional, organism-based, Hepacivirus hominis; conditions: Huh-7
[3] = Cytotoxicity against human HuH7 cells after 3 days by Cell Titre Glo assay; assay type: cell-based, Huh-7
[4] = test system: Hepatitis C virus; experiment: Antiviral activity against Hepatitis C virus H77 genotype 1a infected in human HuH7 cells assessed as intrinsic antiviral potency after 72 hrs by luciferase reporter gene assay; assay type: functional, organism-based, Hepacivirus hominis; conditions: genotype 1a H77, Huh-7, 72 h
[5] = Fraction unbound in cell culture medium at 2 uM at pH 7.4 by equilibrium dialysis method; assay type: ADME
[6] = Cytotoxicity against human MT4 cells after 5 days by Cell Titre Glo assay; assay type: cell-based
[7] = test system: Hepatitis C virus; experiment: Antiviral activity against Hepatitis C virus H77 genotype 1a infected in human HuH7 cells assessed as observed antiviral potency after 72 hrs by luciferase reporter gene assay; assay type: functional, organism-based, Hepacivirus hominis; conditions: genotype 1a H77, Huh-7, 72 h
[8] = test system: Hepatitis C virus; experiment: Antiviral activity against Hepatitis C virus Con1 genotype 1b infected in human HuH7 cells after 72 hrs by luciferase reporter gene assay; assay type: functional, organism-based, Hepacivirus hominis; conditions: isolate Con1, Huh-7, 72 h
[9] = Mean residence time in Sprague-Dawley rat at 1 mg/kg, iv; assay type: ADME, organism-based; design: dose 1 mg/kg, route intravenous; conditions: in vivo
[10] = Mean residence time in Sprague-Dawley rat at 0.5 mg/kg, iv; assay type: ADME, organism-based; design: dose 0.5 mg/kg, route intravenous; conditions: in vivo
[11] = Intrinsic cytotoxicity against human MT4 cells after 5 days by Cell Titre Glo assay; assay type: cell-based
[12] = Lipophilicity, log D of the compound by chromatography; assay type: physicochemical
[13] = test system: Hepatitis C virus; experiment: Antiviral activity against Hepatitis C virus H77 genotype 1a infected in human HuH7 cells assessed as plasma adjusted antiviral potency after 72 hrs by luciferase reporter gene assay; assay type: functional, organism-based, Hepacivirus hominis; conditions: genotype 1a H77, Huh-7, Plasma
[14] = test system: Hepatitis C virus; experiment: Antiviral activity against HCV genotype 1b harboring wild type NS5B polymerase infected in human HuH7-Lunet cells by luciferase reporter gene assay; assay type: functional, organism-based, Hepacivirus hominis; conditions: Huh-7

Row | Compound | EC50 [4] | fraction unbound at 2 µM [5] | CC50 at 120 h [6] | EC50 [7] | EC50 [13] | other results
1 | CC(C)N(c1cc(C#CC(C)(C)C)sc1C(=O)O)C(=O)[C@H]1CC[C@H](C)CC1 | 5.5 nM | 0.06 | > 20000 nM | – | – | Ratio EC50 [1]: 11; EC50 [2]: 293 nM; CC50 at 72 h [3]: ≥ 20000 nM
2 | C[C@@H](CCO)N(c1cc(C#CC(C)(C)C)sc1C(=O)O)C(=O)[C@H]1CC[C@H](C)CC1 | 3.3 nM | 0.22 | > 20000 nM | 15 nM | – | CC50 at 72 h [3]: ≥ 20000 nM; EC50 [8]: 7 nM
3 | CC(C)(C)C#Cc1cc(N(CCO)C(=O)[C@H]2CC[C@H](C)CC2)c(C(=O)O)s1 | – | – | > 20000 nM | 304 nM | – | CC50 at 72 h [3]: ≥ 20000 nM; EC50 [8]: 78 nM
4 | CC(C)(C)C#Cc1cc(N(C(=O)[C@H]2CC[C@H](C)CC2)C2CCN(S(C)(=O)=O)CC2)c(C(=O)O)s1 | 8.7 nM | 0.17 | > 20000 nM | 51 nM | – | –
5 | CC(C)(C)C#Cc1cc(N(C(=O)[C@H]2CC[C@H](C)CC2)C2CCN(C(=O)c3cccnc3)CC2)c(C(=O)O)s1 | 43 nM | 0.23 | > 20000 nM | 183 nM | – | –
6 | CON=C1CCC(N(c2cc(C#CC(C)(C)C)sc2C(=O)O)C(=O)[C@H]2CC[C@H](C)CC2)CC1 (stereo partly specified) | 6.1 nM | 0.07 | > 20000 nM | 88 nM | – | –
7 | CC(C)(C)C#Cc1cc(N(C(=O)[C@H]2CC[C@H](C)CC2)[C@H]2CC[C@H](Oc3cccnc3)CC2)c(C(=O)O)s1 | 3.6 nM | 0.03 | > 20000 nM | 128 nM | – | MRT [9]: 3.4 h
8 | CC(C)(C)C#Cc1cc(N(C(=O)[C@H]2CC[C@H](C)CC2)[C@H]2C[C@@H](Oc3cccnc3)C2)c(C(=O)O)s1 | 6.4 nM | 0.04 | > 20000 nM | 156 nM | – | –
9 | C[C@@H](CCOc1cccnc1)N(c1cc(C#CC(C)(C)C)sc1C(=O)O)C(=O)[C@H]1CC[C@H](C)CC1 | 2.4 nM | 0.02 | > 20000 nM | 102 nM | – | –
10 | CC(C)(C)C#Cc1cc(N(C(=O)[C@H]2CC[C@H](C)CC2)[C@H]2CC[C@@H](Oc3cccnc3)CC2)c(C(=O)O)s1 | 1.2 nM | – | > 20000 nM | 45 nM | – | MRT [10]: 0.2 h
11 | CC(C)(C)C#Cc1cc(N(C(=O)[C@H]2CC[C@H](C)CC2)[C@H]2CC[C@H](Oc3ccccn3)CC2)c(C(=O)O)s1 | 2.5 nM | – | > 20000 nM | 297 nM | 1050 nM | CC50 at 120 h [11]: 100 nM; chromatographic logD [12]: 3; MRT [9]: 5 h
12 | CC(C)(C)C#Cc1cc(N(C(=O)[C@H]2CC[C@H](C)CC2)[C@H]2CC[C@H](Oc3ccncn3)CC2)c(C(=O)O)s1 | 2.8 nM | – | > 20000 nM | 75 nM | 1390 nM | CC50 at 120 h [11]: 599 nM; chromatographic logD [12]: 2.3; MRT [10]: 7.1 h
13 | CC(C)(C)C#Cc1cc(N(C(=O)[C@H]2CC[C@H](C)CC2)[C@H]2CC[C@H](Oc3ccc(=O)[nH]n3)CC2)c(C(=O)O)s1 | 3.5 nM | – | > 20000 nM | 39 nM | 285 nM | CC50 at 120 h [11]: 1480 nM; chromatographic logD [12]: 2; MRT [10]: 1.6 h
14 | CC(C)(C)C#Cc1cc(N(C(=O)[C@H]2CC[C@H](C)CC2)[C@H]2CC[C@@H](Oc3ccc(O)nn3)CC2)c(C(=O)O)s1 | 2.6 nM | – | > 20000 nM | 24 nM | 277 nM | CC50 at 120 h [11]: 2170 nM; chromatographic logD [12]: 1.8; MRT [10]: 0.5 h
15 | CC(C)(C)C#Cc1cc(N(C(=O)[C@H]2CC[C@H](C)CC2)[C@H]2CC[C@H](Oc3nccs3)CC2)c(C(=O)O)s1 | 1.5 nM | – | > 20000 nM | 84 nM | – | MRT [9]: 2.8 h
16 | CC(C)(C)C#Cc1cc(N(C(=O)[C@H]2CC[C@H](C)CC2)[C@H]2CC[C@H](OC3CCOC3)CC2)c(C(=O)O)s1 (stereo partly specified) | 4.3 nM | – | > 20000 nM | 55 nM | 749 nM | CC50 at 120 h [11]: 3070 nM; chromatographic logD [12]: 2.3; MRT [10]: 3.5 h
17 | CC(C)(C#Cc1cc(N(C(=O)[C@H]2CC[C@H](C)CC2)[C@H]2CC[C@H](Oc3ccc(O)nn3)CC2)c(C(=O)O)s1)C(F)(F)F | 4.9 nM | – | > 20000 nM | 51 nM | 516 nM | –
18 | C[C@H]1CC[C@H](C(=O)N(c2cc(C#CC3(C(F)(F)F)CC3)sc2C(=O)O)[C@H]2CC[C@H](Oc3ccc(O)nn3)CC2)CC1 | 6.9 nM | – | > 20000 nM | 61 nM | 751 nM | –
19 | C[C@H]1CC[C@H](C(=O)N(c2cc(C#CC3(C(F)(F)F)CCC3)sc2C(=O)O)[C@H]2CC[C@H](Oc3ccc(O)nn3)CC2)CC1 | 2.7 nM | – | > 20000 nM | 120 nM | 607 nM | –

Row | Compound | EC50 [4] | fraction unbound at 2 µM [5] | CC50 at 120 h [6] | EC50 [7] | EC50 [13] | other results
20 | CC(C)(C)C#Cc1cc(N(C(=O)[C@H]2CC[C@H](C)CC2)[C@H]2CC[C@H](OC3COC3)CC2)c(C(=O)O)s1 | 4.3 nM | – | > 20000 nM | – | 102 nM | CC50 at 120 h [11]: 8350 nM; chromatographic logD [12]: 2.6
21 | CC(C)(C)C#Cc1cc(N(C(=O)[C@H]2CC[C@H](C)CC2)[C@H]2CC[C@H](OC3CCOCC3)CC2)c(C(=O)O)s1 | 2.4 nM | – | > 20000 nM | – | 1830 nM | CC50 at 120 h [11]: 1990 nM; chromatographic logD [12]: 2.4
22 | CC(C)(C#Cc1cc(N(C(=O)[C@H]2CC[C@H](C)CC2)[C@H]2CC[C@H](OC3CCOC3)CC2)c(C(=O)O)s1)CCO (stereo partly specified) | 6.1 nM | – | > 20000 nM | – | 167 nM | CC50 at 120 h [11]: 31300 nM; chromatographic logD [12]: 1.6; MRT [10]: 0.4 h
23 | C[C@@H]1CC[C@@H](C(=O)N(c2cc(C#CC(C)(C)C)sc2C(=O)O)[C@H]2CC[C@H](OC3CCOC3)CC2)[C@@H](O)C1 (stereo partly specified) | 2 nM | – | > 20000 nM | – | 138 nM | CC50 at 120 h [11]: 11600 nM; chromatographic logD [12]: 2.2; MRT [10]: 1.9 h
24 | CC(C)(C)C#Cc1cc(N(C(=O)[C@H]2CC[C@H](C)CC2)[C@H]2CC[C@](O)(CO[C@H]3CCOC3)CC2)c(C(=O)O)s1 | 2.2 nM | – | > 20000 nM | – | 208 nM | Ratio EC50 [1]: 4; EC50 [2]: 47 nM; EC50 [14]: 12 nM; CC50 at 120 h [11]: 8980 nM; chromatographic logD [12]: 2.4; MRT [10]: 3.8 h
25 | CC(C)(C)C#Cc1cc(N(C(=O)[C@H]2CC[C@H](C)CC2)[C@H]2CC[C@@](O)(CO[C@H]3CCOC3)CC2)c(C(=O)O)s1 | 4.3 nM | – | > 20000 nM | – | 191 nM | CC50 at 120 h [11]: 18100 nM; MRT [10]: 0.2 h
26 | CC(C)N(C(=O)C1CCCCC1)c1cc(C#CC(C)(C)C)sc1C(=O)O | 500 nM | 0.18 | > 20000 nM | 2800 nM | – | –
27 | CC(C)N(c1cc(C#CC(C)(C)C)sc1C(=O)O)C(=O)[C@H]1CC[C@H](Cl)CC1 | 44 nM | 0.14 | > 20000 nM | 315 nM | – | –
28 | CC(C)N(c1cc(C#CC(C)(C)C)sc1C(=O)O)C(=O)[C@H]1CC[C@H](CF)CC1 | 31 nM | 0.18 | > 20000 nM | 169 nM | – | –
29 | CC(C)N(C(=O)C1CCC(F)(F)CC1)c1cc(C#CC(C)(C)C)sc1C(=O)O | 12800 nM | 0.4 | > 20000 nM | 32100 nM | – | –
30 | CC(C)N(C(=O)C1CCCCCC1)c1cc(C#CC(C)(C)C)sc1C(=O)O | 225 nM | 0.11 | > 20000 nM | 2020 nM | – | –
31 | CC(C)N(C(=O)[C@H]1[C@@H]2CCCC[C@@H]21)c1cc(C#CC(C)(C)C)sc1C(=O)O | 206 nM | 0.04 | > 20000 nM | 4680 nM | – | –
32 | CC(C)N(C(=O)[C@H]1CC[C@@H]2C[C@@H]2CC1)c1cc(C#CC(C)(C)C)sc1C(=O)O | 483 nM | 0.08 | > 20000 nM | 6190 nM | – | –
33 | CC(C)N(C(=O)[C@@H]1CC[C@@H]2C[C@@H]2CC1)c1cc(C#CC(C)(C)C)sc1C(=O)O | 88 nM | 0.05 | > 20000 nM | 1620 nM | – | –
34 | CC1CC=C(C(=O)N(c2cc(C#CC(C)(C)C)sc2C(=O)O)C(C)C)CC1 (stereo unspecified) | 65 nM | 0.08 | > 20000 nM | 773 nM | – | –
35 | CC1=CC[C@@H](C(=O)N(c2cc(C#CC(C)(C)C)sc2C(=O)O)C(C)C)CC1 | 3.7 nM | 0.08 | > 20000 nM | 45 nM | – | –
36 | CC1=CC[C@H](C(=O)N(c2cc(C#CC(C)(C)C)sc2C(=O)O)C(C)C)CC1 | 2.2 nM | 0.07 | > 20000 nM | 31 nM | – | Ratio EC50 [1]: 5; EC50 [2]: 40 nM; EC50 [14]: 8 nM
37 | CCC[C@]1(CC(=O)O)OCCc2c1[nH]c1c(C)ccc(C#N)c21 | – | – | > 20000 nM | – | – | –
38 | CC(C)N(c1cc(-c2ccccc2)sc1C(=O)O)C(=O)[C@H]1CC[C@H](C)CC1 | 170 nM | 0.08 | > 20000 nM | 2100 nM | – | CC50 at 72 h [3]: ≥ 20000 nM; EC50 [8]: 593 nM

From ChEMBL document CHEMBL3120092, “Discovery of GS-9669, a thumb site II non-nucleoside inhibitor of NS5B for the treatment of genotype 1 chronic hepatitis C infection” (J Med Chem, 2014)
